# From patent US20250122266A1, “SMART SINGLE-DOMAIN INTRABODIES WITH PRECISION SWITCHES FOR BIOMEDICAL APPLICATIONS” (THE TEXAS A&M UNIVERSITY SYSTEM, priority 2020, published 2025)
# Test system: Mito-mCh
# Assay: mitochondria (Mito) translocation assay of rapabody and caffebody
# Type: cell-based
# Conditions: HeLa cells, GFP-caffebody and Mito-mCh
# Protocol: For ligand-controllable nanobodies rapabody and caffebody, similar imaging and data analysis procedures were used. Transfected HeLa cells were incubated with normal growth media or media supplemented with different concentrations of ligands or diluted beverages as indicated in the figures. Coffees and teas were purchased from Starbucks, while other drinks were purchased from a grocery store.
# The instant example evaluates whether the installation of genetically-encoded chemical switches would likewise enable chemogenetic control of nanobodies. The LOV2 domain in the S3 loop of sunbody was substituted with two ligand-controllable precision switches, UniRapR and a dimeric concatemer of acVHH (2×acVHH; FIG. 23A). UniRapR, engineered from the FKBP-FRB based chemically-inducible dimerization system, has been used to enable rapamycin-induced allosteric control of a wide range of host proteins, including kinases and GTPases. Further, acVHH is known to induce self-dimerization upon addition of caffeine, and thus it was hypothesized to elicit conformational changes when inserted into a host protein as a dimeric concatemer. These intrabody compositions were named “rapabodies” and “caffebodies”, respectively, to reflect the compounds used for chemogenetic manipulation. […]
compound,measurement,value
Cn1c(=O)c2[nH]cnc2n(C)c1=O [theophylline],activation of caffebody by caffeine analog or beverages,could similarly activate caffebody
